Reference: patent US12077503B2, “Substituted cyclic amides and their use as herbicides” (FMC CORPORATION, priority 2015, dated 2024)

What was measured:
Assay type in all cases: in vivo
corn (Zea mays) = assay: Test A postemergence
Procedure, shortened: (§1)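 In a loam soil and sand blend, planted seeds got a preemergence directed soil spray, and young plants at the one- to two-leaf stage, 2–10 cm high, got a postemergence application; ~10 d greenhouse hold; injury rated visually, 0 = none, 100 = complete control.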

[1] = system: pigweed (Amaranthus retroflexus); assay: Test A postemergence
Procedure, shortened: as §1

[2] = system: blackgrass (Alopecurus myosuroides); assay: Test A postemergence
Procedure, shortened: as §1

[3] = system: giant foxtail (Setaria faberii); assay: Test A postemergence
Procedure, shortened: as §1

[4] = system: ragweed (common ragweed, Ambrosia elatior); assay: Test A postemergence
Procedure, shortened: as §1

[5] = system: ryegrass, Italian (Italian ryegrass, Lolium multiflorum); assay: Test A postemergence
Procedure, shortened: as §1

[6] = system: Galium (catchweed bedstraw, Galium aparine); assay: Test A postemergence
Procedure, shortened: as §1

Kochia (Kochia scoparia) [7] = assay: Test A postemergence
Procedure, shortened: as §1

[8] = system: barnyardgrass (Echinochloa crus-galli); assay: Test A postemergence
Procedure, shortened: as §1

[9] = system: wheat (Triticum aestivum); assay: Test A postemergence
Procedure, shortened: as §1

[10] = system: ducksalad (Heteranthera limosa); assay: Test B flooded paddy test; details: Flood, 0 to 100 scale where 0 is no effect and 100 is complete control, 13 to 15 d
Procedure, shortened: (§2)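 Greenhouse paddy pots with 2-leaf stage plants received compound by direct addition to floodwater 3 cm deep, kept at that level. Scored visually at 13–15 d versus controls (0 no effect; 100 complete control).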

[11] = system: sedge, umbrella (small-flower umbrella sedge, Cyperus difformis); assay: Test B flooded paddy test; details: Flood, 0 to 100 scale where 0 is no effect and 100 is complete control, 13 to 15 d
Procedure, shortened: as §2

rice (Oryra sativa) = assay: Test B flooded paddy test; details: Flood, 0 to 100 scale where 0 is no effect and 100 is complete control, 13 to 15 d
Procedure, shortened: as §2

[12] = system: barnyardgrass (Echinochloa crus-galli); assay: Test B flooded paddy test; details: Flood, 0 to 100 scale where 0 is no effect and 100 is complete control, 13 to 15 d
Procedure, shortened: as §2

[13] = system: pigweed (Amaranthus retroflexus); assay: Test A preemergence
[14] = system: giant foxtail (Setaria faberii); assay: Test A preemergence
Procedure, shortened: as §1

[15] = system: ragweed (common ragweed, Ambrosia elatior); assay: Test A preemergence
Procedure, shortened: as §1

[16] = system: ryegrass, Italian (Italian ryegrass, Lolium multiflorum); assay: Test A preemergence
Procedure, shortened: as §1

Kochia (Kochia scoparia) [17] = assay: Test A preemergence
Procedure, shortened: as §1

[18] = system: barnyardgrass (Echinochloa crus-galli); assay: Test A preemergence
Procedure, shortened: as §1

[19] = 125 g ai/ha, postemergence, visual injury rating on 0 to 100 scale (0 no effect, 100 complete control), approx. 10 d
[20] = Postemergence, 500 g ai/ha, 0 to 100 scale where 0 is no effect and 100 is complete control
[21] = 125 g ai/ha, Preemergence, visual injury after approximately 10 d, 0 to 100 scale where 0 is no effect and 100 is complete control
[22] = Preemergence, 500 g ai/ha, visual injury approx. 10 d
[23] = 500 g ai/ha, postemergence, 0 to 100 scale, 0 no effect, 100 complete control
[24] = Postemergence, 125 g ai/ha, visual injury, 0 to 100 scale (0 no effect, 100 complete control), approx. 10 d
[25] = 125 g ai/ha, preemergence, 0 to 100 scale (0 no effect, 100 complete control)
[26] = Preemergence, 500 g ai/ha, 0 is no effect, 100 is complete control
[27] = 125 g ai/ha, postemergence, visual injury after approximately 10 d, 0 to 100 scale (0 no effect, 100 complete control)
[28] = 500 g ai/ha, postemergence, visual injury, 0 to 100 scale (0 no effect, 100 complete control), approx. 10 d
[29] = 125 g ai/ha, preemergence, visual rating after approx. 10 d, 0 to 100 scale where 0 is no effect and 100 is complete control
[30] = 500 g ai/ha, preemergence, 0 to 100 scale, 0 = no effect, 100 = complete control

With `O=C1NCC(c2ccc(C(F)(F)F)c(F)c2)C1C(=O)Nc1ccc(F)cc1F` (racemic) [Compound 522] the “Corn plant response rating” value (corn (Zea mays); [19]) was 0, the “Plant response rating, Corn” value (corn (Zea mays); [20]) was 20 and the “Pigweed plant response rating” value [1, 19] was 20. For the same molecule, the “Plant response rating, Pigweed” value [1, 20] was 40, the “Blackgrass plant response rating” value [2, 19] was 30 and the “Plant response rating, Blackgrass” value [2, 20] was 50. The “Foxtail, Giant plant response rating” value [3, 19] was 90, the “Plant response rating, Foxtail, Giant” value [3, 20] was 90 and the “Ragweed plant response rating” value [4, 19] was 0. For the same molecule, the “Plant response rating, Ragweed” value [4, 20] was 0, the “Ryegrass, Italian plant response rating” value [5, 19] was 20 and the “Plant response rating, Ryegrass, Italian” value [5, 20] was 40. The “Galium plant response rating” value [6, 19] was 30, the “Plant response rating, Galium” value [6, 20] was 60 and the “Kochia plant response rating” value (Kochia (Kochia scoparia) [7]; [19]) was 20. The “Plant response rating, Kochia” value (Kochia (Kochia scoparia) [7]; [20]) was 50, the “Barnyardgrass plant response rating” value [8, 19] was 60 and the “Plant response rating, Barnyardgrass” value [8, 20] was 80. For the same molecule, the “Wheat plant response rating” value [9, 19] was 0, the “Plant response rating, Wheat” value [9, 20] was 20 and the “Plant response rating, Ducksalad” value ([10]; 250 g ai/ha) was 100. The “Plant response rating, Sedge, Umbrella” value ([11]; 250 g ai/ha) was 0, the “Plant response rating, Rice” value (rice (Oryra sativa); 250 g ai/ha) was 0 and the “Plant response rating, Barnyardgrass” value ([12]; 250 g ai/ha) was 40. The “Plant response rating, Pigweed” value [13, 21] was 70, the “Pigweed plant response rating (0 to 100 scale, 0 is no effect, 100 is complete control)” value [13, 22] was 80 and the “Plant response rating, Foxtail, Giant” value [14, 21] was 90. For the same molecule, the “Foxtail, Giant plant response rating (0 to 100 scale, 0 is no effect, 100 is complete control)” value [14, 22] was 90, the “Plant response rating, Ragweed” value [15, 21] was 0 and the “Ragweed plant response rating (0 to 100 scale, 0 is no effect, 100 is complete control)” value [15, 22] was 30. The “Plant response rating, Ryegrass, Italian” value [16, 21] was 30, the “Ryegrass, Italian plant response rating (0 to 100 scale, 0 is no effect, 100 is complete control)” value [16, 22] was 60 and the “Plant response rating, Kochia” value (Kochia (Kochia scoparia) [17]; [21]) was 60. The “Kochia plant response rating (0 to 100 scale, 0 is no effect, 100 is complete control)” value (Kochia (Kochia scoparia) [17]; [22]) was 60, the “Plant response rating, Barnyardgrass” value [18, 21] was 90 and the “Barnyardgrass plant response rating (0 to 100 scale, 0 is no effect, 100 is complete control)” value [18, 22] was 90.
In the case of `Cc1cccc(C2CNC(=O)C2C(=O)Nc2cccc(F)c2F)c1` (racemic) [Compound 373], the “Plant response rating, Corn” value (corn (Zea mays); [23]) is reported as 50, the “Plant response rating, Corn” value (corn (Zea mays); [24]) is reported as 20 and the “Plant response rating, Pigweed” value [1, 23] is reported as 30. The “Plant response rating, Pigweed” value [1, 24] was 20, the “Plant response rating, Blackgrass” value [2, 23] was 40 and the “Plant response rating, Blackgrass” value [2, 24] was 20. The “Plant response rating, Foxtail, Giant” value [3, 23] was 70, the “Plant response rating, Foxtail, Giant” value [3, 24] was 40 and the “Plant response rating, Ragweed” value [4, 23] was 0. The “Plant response rating, Ragweed” value [4, 24] was 0, the “Plant response rating, Ryegrass, Italian” value [5, 23] was 20 and the “Plant response rating, Ryegrass, Italian” value [5, 24] was 30. The “Plant response rating, Galium” value [6, 23] was 30, the “Plant response rating, Galium” value [6, 24] was 30 and the “Plant response rating, Kochia” value (Kochia (Kochia scoparia) [7]; [23]) was 40. The “Plant response rating, Kochia” value (Kochia (Kochia scoparia) [7]; [24]) was 0, the “Plant response rating, Barnyardgrass” value [8, 23] was 80 and the “Plant response rating, Barnyardgrass” value [8, 24] was 80. The “Plant response rating, Wheat” value [9, 23] was 70, the “Plant response rating, Wheat” value [9, 24] was 20 and the “Plant response rating, Ducksalad” value ([10]; 250 g ai/ha) was 100. The “Plant response rating, Sedge, Umbrella” value ([11]; 250 g ai/ha) was 0, the “Plant response rating, Rice” value (rice (Oryra sativa); 250 g ai/ha) was 20 and the “Plant response rating, Barnyardgrass” value ([12]; 250 g ai/ha) was 60. The “Plant response rating, Pigweed” value [13, 25] was 0, the “Pigweed plant response rating (0 to 100 scale)” value [13, 26] was 20 and the “Plant response rating, Foxtail, Giant” value [14, 25] was 80. For the same molecule, the “Foxtail, Giant plant response rating (0 to 100 scale)” value [14, 26] was 90, the “Plant response rating, Ragweed” value [15, 25] was 0 and the “Ragweed plant response rating (0 to 100 scale)” value [15, 26] was 30. For the same molecule, the “Plant response rating, Ryegrass, Italian” value [16, 25] was 30, the “Ryegrass, Italian plant response rating (0 to 100 scale)” value [16, 26] was 40 and the “Plant response rating, Kochia” value (Kochia (Kochia scoparia) [17]; [25]) was 0. The “Kochia plant response rating (0 to 100 scale)” value (Kochia (Kochia scoparia) [17]; [26]) was 30, the “Plant response rating, Barnyardgrass” value [18, 25] was 90 and the “Barnyardgrass plant response rating (0 to 100 scale)” value [18, 26] was 90.
With `O=C1NCC(c2ccc(I)cc2)C1C(=O)Nc1ccc(F)cc1F` (racemic) [Compound 701] the “Plant response rating, Corn” value (corn (Zea mays); [27]) was 0, the “Plant response rating, Corn” value (corn (Zea mays); [28]) was 0 and the “Plant response rating, Pigweed” value [1, 27] was 0. The “Plant response rating, Pigweed” value [1, 28] was 0, the “Plant response rating, Blackgrass” value [2, 27] was 0 and the “Plant response rating, Blackgrass” value [2, 28] was 0. The “Plant response rating, Foxtail, Giant” value [3, 27] was 60, the “Plant response rating, Foxtail, Giant” value [3, 28] was 70 and the “Plant response rating, Ragweed” value [4, 27] was 0. For the same molecule, the “Plant response rating, Ragweed” value [4, 28] was 0, the “Plant response rating, Ryegrass, Italian” value [5, 27] was 0 and the “Plant response rating, Ryegrass, Italian” value [5, 28] was 0. For the same molecule, the “Plant response rating, Galium” value [6, 27] was 0, the “Plant response rating, Galium” value [6, 28] was 0 and the “Plant response rating, Kochia” value (Kochia (Kochia scoparia) [7]; [27]) was 0. For the same molecule, the “Plant response rating, Kochia” value (Kochia (Kochia scoparia) [7]; [28]) was 0, the “Plant response rating, Barnyardgrass” value [8, 27] was 60 and the “Plant response rating, Barnyardgrass” value [8, 28] was 70. For the same molecule, the “Plant response rating, Wheat” value [9, 27] was 0, the “Plant response rating, Wheat” value [9, 28] was 0 and the “Plant response rating, Ducksalad” value ([10]; 500 g ai/ha) was 100. For the same molecule, the “Plant response rating, Sedge, Umbrella” value ([11]; 500 g ai/ha) was 0, the “Plant response rating, Rice” value (rice (Oryra sativa); 500 g ai/ha) was 0 and the “Plant response rating, Barnyardgrass” value ([12]; 500 g ai/ha) was 65. The “Plant response rating, Pigweed” value [13, 29] was 0, the “Plant response rating, Pigweed” value [13, 30] was 0 and the “Plant response rating, Foxtail, Giant” value [14, 29] was 90. For the same molecule, the “Plant response rating, Foxtail, Giant” value [14, 30] was 90, the “Plant response rating, Ragweed” value [15, 29] was 0 and the “Plant response rating, Ragweed” value [15, 30] was 0. For the same molecule, the “Plant response rating, Ryegrass, Italian” value [16, 29] was 0, the “Plant response rating, Ryegrass, Italian” value [16, 30] was 0 and the “Plant response rating, Kochia” value (Kochia (Kochia scoparia) [17]; [29]) was 0. The “Plant response rating, Kochia” value (Kochia (Kochia scoparia) [17]; [30]) was 0, the “Plant response rating, Barnyardgrass” value [18, 29] was 60 and the “Plant response rating, Barnyardgrass” value [18, 30] was 90.
